A melting point compilation (Tetko et al.; mined from patent text by program, amines drawn as free bases though some values may be those of a salt)

SMILES	melting point [°C]
CCC12CCC3=C(CCc4cc(OC)ccc43)C1=CCC2=O (configuration not stated)	77 to 80
CCCc1nc2c(N)nc3cc(O)ccc3c2n1CC(C)C	> 265
CCCc1c(-c2ccc(OC(F)F)c(OC3CC3)c2)[nH]c2cnn(COCC[Si](C)(C)C)c(=O)c12	208 to 210
CCOP(=O)(Cc1nc(Cl)cc(N2CCCC2)n1)OCC	68 to 69
COc1cc2cc(-c3ccc4c(c3)OCO4)nc(C)c2cc1OC	174
CC1=C(CN2CC(C(=O)O)C2)CCc2cc(OCc3ccc(C(F)(F)F)cc3C(F)(F)F)ccc21	155 to 165
O=C(CCCCN1CCC(Cc2ccccc2)CC1)c1ccc2c(c1)Cc1cc(C(=O)CCCCN3CCC(Cc4ccccc4)CC3)ccc1-2	147 to 149
COc1cc(CNC(=O)c2nc3sccc3c(=O)[nH]2)ccc1Br	196 to 198
CCOC(=O)c1nc(-c2ccc([N+](=O)[O-])c(C)c2)[nH]c1-c1ccc(OC)cc1	187 to 191
O=CN(CCl)c1ccccc1	67
C[C@@H](O)[C@H]1C(=O)N([Si](C)(C)C(C)(C)C)[C@@H]1CC(=O)[Si](C)(C)C	82 to 84
N=C(N)NCCc1ccc(NC(=O)CC(c2ccccc2)(c2ccccc2)c2ccccc2)cc1	213 to 215
CC(=O)c1nc(Cl)ccc1N	108 to 110
CC(=O)N1C2=NC(C)(C)N(C)C(=O)N2c2ccccc21	159 to 162
CCCn1cc2c(C3C(=O)Nc4ccc(Br)cc43)nc(NCC(C)N)nc2n1 (configuration not stated)	247 to 250
C=C1CC2C3CCC4=CC(=O)C=CC4(C)C3=CCC2(C)C1=O (configuration not stated)	157 to 160
Cc1ccc(N2CN(C)CNC2=S)c(C)c1	140 to 143
CON=C1CN(c2c(F)c(N)c3c(=O)c(C(=O)O)cn(C4CC4)c3c2F)CC12CN(C(=O)OC(C)(C)C)C2	256 to 257
Clc1ccc(Nc2nc3ccccc3c3[nH]c(C4CCC4)nc23)cc1Cl	131 to 134
COC(=O)C1(Nc2cc(Cl)c(Cl)cc2N)CCSC1 (configuration not stated)	162
Cc1c(-c2ccccc2)n[nH]c1OCCN1CCOCC1	100
COc1ccc(-c2n[nH]c3ccsc23)cc1	143 to 144

SMILES	melting point [°C]
CC(=O)O[C@@H]1C(=O)N[C@@H]1c1ccccc1 (relative stereo)	150 to 151
CCCN(C)c1ncc2cc(-c3ccc(C(=O)N4CCN(C)CC4)cc3)[nH]c2n1	222 to 224
CCc1nc(O)c2sccc2n1	233 to 237
N#Cc1ccccc1NC(=O)c1snnc1C1CC1	124
Cc1cncn1-c1cc(C#N)cc(C(F)(F)F)c1	99 to 101
C#CC1(O)C(CO)OC(n2ccc(N)nc2=O)C1O (configuration not stated)	233 to 235
CCOP(=O)(OCC)C(CCc1cc(C)nc2cc(-c3ccccc3)nn12)P(=O)(OCC)OCC	51 to 52
CN1C(=O)C(=NC(Cl)=C(Cl)Cl)N(c2ccc(Cl)cc2)C1=O	108 to 110
N#Cc1cc(C#N)cc(Oc2cccc(Oc3cc(C#N)cc(C#N)c3)c2)c1	212 to 213
COc1c(C(=O)O)cccc1[N+](=O)[O-]	224 to 226
CC(C)=C1CC(=O)N(c2cc(F)c(C#N)cc2F)C1=O	135
O=C1Nc2cccc(Cl)c2C12COc1cc3c(cc12)OCO3 (configuration not stated)	175 to 185
CCCCCCCCCCCCCCCCCCCCCCCCCCCCOC(=O)c1cccnc1	65 to 70
CCN(CC)c1ccc(N(c2ccc(N(C)C)cc2)C2(c3ccc(N(C)C)cc3Cl)OC(=O)c3ccccc32)cc1 (configuration not stated)	67 to 84
COCCn1nc2c(N)nc3ccccc3c2c1CCCCNS(C)(=O)=O	159 to 161
COc1ccc(CS[C@@H]2CN[C@H](C(N)=O)C2)cc1	120 to 121
CCOC(=O)c1c(C(F)(F)F)nc(C(F)(F)Cl)c(C(=O)OC)c1N1CCCC1	72 to 73.5
CCCCCCc1oc(C=Cc2ccccc2)nc1C(=O)O	133 to 134
O=C1COCC2=C1C(c1ccc(F)c(Br)c1)C1=C(CNC1=O)N2 (configuration not stated)	> 260
COc1ccc2cc(C(C)C(=O)OC/C=C\COC(=O)OC(C)O[N+](=O)[O-])ccc2c1 (configuration not stated)	76 to 78
N#Cc1[nH]c2ccccc2c1Cl	150 to 154
Cc1ccc(-n2nc(C(F)F)cc2-c2ccc(S(C)(=O)=O)c(F)c2)cc1Cl	146 to 147

SMILES	melting point [°C]
CC(C)(C)OC(=O)NNc1ccc([N+](=O)[O-])cn1	132 to 134
CCOC(=O)c1csc2cc(OC)ccc12	68 to 69
COCC1CN(CCOc2ccc(NC(=O)Nc3cc(C(C)(C)C)nn3-c3ccc(C)cc3)c3ccccc23)CCO1 (configuration not stated)	85 to 90
Clc1cc(CC(Cl)Cl)cnc1Cl	89 to 90
CC(C)c1ccc2c(=O)c(S(C)=O)cn(C)c2c1 (configuration not stated)	214 to 215
Clc1nc(Oc2ccccc2)nc(Oc2ccccc2)n1	119 to 121
Nc1ccc2c(c1)NC(=O)C2	194
CNc1ccc(CCl)cc1[N+](=O)[O-]	126 to 128
O=C(O)C(=NO)C(c1ccc(OCc2ccc3ccccc3n2)cc1)c1ccc(OCc2ccc3ccccc3n2)cc1	183 to 185
Fc1ccc(Nc2ccnc3cc(Cl)ccc23)cc1	214 to 216
CS(=O)(=O)N1CC1COc1ccc(C#N)cc1 (configuration not stated)	79 to 81
Cc1cc2c(s1)Nc1ccccc1N=C2N1CCN[C@@H](CO)C1	90
CC(=O)NC(Cc1cc(F)c(F)cc1F)Cc1nnc2n1ccc1ncnn12 (configuration not stated)	233 to 235
CNC1([C@@H]2CCN(c3ccc4c(=O)c(C(=O)O)cn([C@@H]5C[C@@H]5F)c4c3OC)C2)CC1	213 to 215
CCOCC(=NO)C(C)(C)NCCCNC(C)(C)C(Cn1ccnc1[N+](=O)[O-])=NO	122 to 123
Cn1c(C(F)(F)F)cc(=O)n(-c2cc(Oc3ccccc3O)c(Cl)cc2F)c1=O	55.4
C#CCN(Cc1cc2c(=O)n(CCN(C)C)c(CN3CCCCC3)nc2cc1Cl)c1ccc(C(=O)OC(C)(C)C)cc1	75 to 77
COc1ccc(Cl)cc1-n1c(N(C)C)nc2cc(C(F)(F)F)ccc21	230 to 234
NC(=O)c1sc2nccc(N3CCCC(c4ccccc4)C3)c2c1N (configuration not stated)	267 to 269
CCCCCCCCCCCCCCOC(=O)CNC(=O)OCc1ccccc1	57 to 58
CCC(CC)c1nn(-c2ccc(C(F)(F)F)nn2)cc1CCCOc1c(C)cccc1CC(=O)O	76 to 77
Cc1[nH]c(=O)n(C(C)C)c1-c1ccc(C2CCCCC2)cc1	274

Continued, values first:

melting point [°C]	SMILES
76 to 79	O=C(c1ccccc1Cl)c1ccccc1[N+](=O)[O-]
252	Cc1cc(-c2cc(C(F)F)n3ncc(C(=O)Nc4cccc(S(N)(=O)=O)c4)c3n2)ccc1C(F)(F)F
143 to 146	O=c1c(Br)c(OCc2ccccc2Cl)ccn1Cc1ccccc1
95 to 97	CCCN(CCC)C(=O)Cc1ccc(OCC(=O)c2ccc(OC)cc2)c([N+](=O)[O-])c1
> 235	O=C(Nc1ccc(C(=O)O)cc1)OCc1ccccc1
230 to 235	NC(=O)c1ccccc1NC(=O)c1ccc2c(c1)CCO2
151 to 154	O=C(Cc1cccc(O)c1)c1cccc(O)c1
175 to 178	N=C(N)Nc1nc(CSCCNC(=O)c2cccc(NS(=O)(=O)c3ccccc3)c2)cs1
241 to 242	O=C(O)c1c(-c2cccc3ccccc23)c2ccccc2n1Cc1cc2c(cc1Cl)OCO2
130	CC(CN(C)C)N1c2ccccc2Sc2ccc(C(=O)NCc3ccccc3F)cc21 (racemic)
144 to 147	CC(Br)C(=O)c1ccccc1NCC(=O)O (configuration not stated)
152 to 154	COc1cc(C(=O)Nc2ccc(N3CCCC3)cc2C(C)=O)ccc1OCc1ccccc1
288	O=C(O)C1Cc2cc(O)c(O)cc2CN1 (configuration not stated)
176	Clc1ccc(/C=C/c2ccc(Cl)cc2)cc1
238 to 240	O=C(O)c1ccc(-n2sc(-c3ccccc3)cc2=O)cc1
176 to 177	COc1cccc(C(=N)NN2CCc3ccccc3C2=O)c1
108 to 110	CCc1ccc(C(=O)Nc2ccc(F)c(F)c2)cc1N
114 to 115	COc1cc(C=CC=O)cc(OC)c1OCc1ccccc1

melting point [°C]	SMILES
187 to 188	COc1ccc2c(N)c(C(=O)Nc3ccc(Cl)cc3Cl)oc2c1
139 to 140	CCOC(=O)c1nc(-c2ccccc2)nc2c1c1ccc(Cl)cc1n2C
116 to 117	Cc1sc(COc2ccc(/C=C/C=O)cc2)nc1-c1ccccc1
163 to 164	C=CCOc1ccc(C(=O)O)cc1
99.5 to 101	COC(=O)c1ccc(CN(C(=O)OC(C)(C)C)c2ccc(C3CCCCC3)cc2)cc1
245	O=C1c2ccccc2C(=O)N1c1ccc2ccc(F)nc2n1
162 to 164	CC(=O)OCc1ccc(-c2[nH]c(-c3cccc4ccccc34)nc2C(=O)OC(C)(C)C)cc1
194 to 198	N#Cc1ccccc1N1CCCN(Cc2cc3cc(F)ccc3[nH]2)CC1
160 to 161	CC(=O)Nc1nccc2cc3cccnc3n12
135 to 136	O=C(CCN1CCN(Cc2ccccc2)CC1)c1ccc2oc3ccccc3c2c1
274 to 275	c1ccc(Cn2ccnc2-c2nnn[nH]2)cc1
141 to 143	Cc1cc(C)cc(-c2nc(N)sc2-c2ccnc(OCc3ccccc3)c2)c1
122 to 123	O=C(CC1c2ccccc2C(=O)N1c1ccccc1)N1CCCCC1 (configuration not stated)
284 to 286	O=C1Nc2ccccc2S(=O)(=O)c2ccccc21
107	O=C(CCCCCNC(=O)CCc1ccccc1)NO
102 to 104	CC(C)C1c2ccc(F)cc2CCC1(O)CC(=O)O (configuration not stated)
141 to 145	O=C1NC2CCC(=O)N2[C@H]1Cc1ccccc1 (some centres not stated)
239 to 242	Cn1ccnc1-c1ccc(O)cc1
